Experimental data taken from PMC12406195, “Understanding the Modes of Action of β‑Ketoiminato Iridium(III) Complexes in Cancer Cells” (Inorganic Chemistry, 2025).

Assays:
Format in all cases: cell-based, human
MDA-MB-231 cells [1] = test: 3D spheroid live/dead viability assay; settings: MDA-MB-231 spheroids, 100 μM, 48 h
Protocol: 3D cell cultures of cancer are good models for preclinical cancer research, as they are more representative of tumor microenvironments. MDA-MB-231 cells were maintained using the standard cell culture methods before seeding into round-bottom ultralow-attachment plates for 3D culture. Once the cells were seeded, the plate was centrifuged to assist with cell clumping at the bottom of the well and facilitate uniform spheroid formation. After 24 h, medium containing collagen I was added, and the cells were allowed to aggregate further. After sufficient growth of the spheroids (Day 4 – Figure ), the cells were treated with 100 μM of 1 for 48 h. The higher concentration was chosen, as it has been reported that spheroids require higher drug doses than two-dimensional (2D) experiments.
Live and dead cells were then visualized using the LIVE/DEAD Viability/Cytotoxicity Kit by Invitrogen. […]
An equal volume of Annexin V and 7-AAD solution was added to 100 μL of the cell suspension, followed by a 20 min incubation at room temperature. The cells were then analyzed using the Muse Cell Analyzer (Merck Millipore). […]
A mixture of 50 μL of cell suspension and 5 μL of Caspase 3/7 antibody (diluted 1:8 in PBS) was prepared and incubated at room temperature for 30 minutes. […] Apoptotic cells were analyzed using the Muse Cell Analyzer. […]

MCF-7 cells = test: Chemosensitivity (MTT cell viability) assay, MCF-7
Protocol: (§1) All cytotoxicity assays were conducted using human cell lines: breast adenocarcinomas (MDA-MB-231 and MCF-7), pancreatic carcinoma (MIA PaCa-2) and non-cancerous epithelial retinal (ARPE-19) cell lines. All cell lines were routinely maintained as monolayer cultures in appropriate complete media:
(§2) MCF-7, MIA PaCa-2 and ARPE-19 in high glucose DMEM and MDA-MB-231 in RPMI-1640, and both media were supplemented with 10% FBS, 1 mM sodium pyruvate, 2 mM L-glutamine, and 1% pen-strep. All cells were initially grown in T-25 or T-75 flasks at 37 °C and 5% CO2. Before chemosensitivity studies, cell monolayers were passaged using trypsin-EDTA (0.05%) and diluted to a concentration of 1 x 10^4 cells/mL (or 4 x 10^4 cells mL for 24 h assays). All assays were conducted in 96-well plates, in which 100 µL of the cell suspension was added for 24 h at 37 °C and 5% CO2, and then 100 µL of compound/medium dilutions for a further 96 h (or 24 h). All compound stocks were made using sterile DMSO at 100 mM before dilution, and a maximum of 0.1% DMSO was used in each assay. After incubation, 3-(4,5-dimethylthiazol-2-yl)-2,5-diphenyltetrazolium bromide (20 µL, 5 mg/mL in PBS) was added to each well and incubated for 3 h at 37°C and 5% CO2. All solutions were then aspirated, DMSO (150 µL) added to each well, gently mixed, and the absorbance was measured at 540 nm using a ClarioStar spectrophotometer microplate reader. Results were plotted on a logarithmic scale, and the half maximal inhibitory concentration (IC50) was determined from a triplicate of triplicate repeats (n = 9) and reported as an IC 50 ± Standard Deviation (SD).

MIA PaCa-2 cells = test: Chemosensitivity (MTT cell viability) assay, MIA PaCa-2
Protocol: as §1, §2

MDA-MB-231 cells [2] = test: Chemosensitivity (MTT cell viability) assay, MDA-MB-231; settings: for IC50: n = 9
Protocol: as §1, §2

Substance: [Cp*Ir(C16H14NO)(PTA)](PF6) [Compound 1]
- Cytotoxicity in 3D spheroids (live/dead staining) (MDA-MB-231 cells [1]): significant cytotoxicity
- IC50 (MCF-7 cells; MCF-7, 96 h, n = 9): 48 ± 3 µM
- Selectivity index (SI) (MCF-7 cells; MCF-7 compared to ARPE-19, 96 h): 0.2
- IC50 (MIA PaCa-2 cells; MIA PaCa-2, 96 h, n = 9): 9 ± 1 µM
- Selectivity index (SI) (MIA PaCa-2 cells; MIA PaCa-2 compared to ARPE-19, 96 h): 1.2
- IC50 (MDA-MB-231 cells [2]; MDA-MB-231, 24 h): 18 ± 1 µM
- IC50 (MDA-MB-231 cells [2]; MDA-MB-231, 96 h): 6.3 ± 0.7 µM
- Selectivity index (SI) (MDA-MB-231 cells [2]; MDA-MB-231 compared to ARPE-19, 96 h): 1.7
